Experimental data from patent US20040110763A1, “Pyrazolopyridine compound and pharmaceutical use thereof” (priority 2000, published 2004).

SMILES | melting point [°C]
CC(C)n1nc(-c2c(-c3ccccc3)nn3ccc(OCC(=O)N(C)C)cc23)ccc1=O [Example 40, 2-{[3-(3-oxo-2-isopropyl-2,3-dihydropyridazin-6-yl)-2-phenylpyrazolo[1,5-a]pyridin-5-yl]oxy}-N,N-dimethylacetamide] | 189 to 190
CC(C)n1nc(-c2c(-c3ccccc3)nn3ccc(N4C[C@@H](C)O[C@@H](C)C4)cc23)ccc1=O [Example 100, 5-(cis-2,6-Dimethyl-4-morpholinyl)-3-(3-oxo-2-isopropyl-2,3-dihydropyridazin-6-yl)-2-phenylpyrazolo[1,5-a]-pyridine] | 176 to 177
CC(C)n1nc(-c2c(-c3ccccc3)nn3ccc(OC4CCN(C(=O)OC(C)(C)C)CC4)cc23)ccc1=O [Example 29, tert-Butyl 4-{[3-(3-oxo-2-isopropyl-2,3-dihydropyridazin-6-yl)-2-phenylpyrazolo[1,5-a]pyridin-5-yl]oxy}-1-piperidinecarboxylate] | 176 to 179
CC(C)n1nc(-c2c(-c3ccccc3)nn3ccc(OCC(=O)N4CCN(C(=O)N(C)C)CC4)cc23)ccc1=O [Example 55, N,N-dimethyl-4-[{3-(3-oxo-2-isopropyl-2,3-dihydropyridazin-6-yl)-2-phenylpyrazolo[1,5-a]pyridin-5-yl}oxy]acetyl-1-piperazine carboxamide] | 151 to 152
CC(C)n1nc(-c2c(-c3ccccc3)nn3ccc(OCCN4CCCCC4)cc23)ccc1=O [Example 16, 5-[2-(1-Piperidinyl)ethoxy]-3-(3-oxo-2-isopropyl-2,3-dihydropyridazin-6-yl)-2-phenylpyrazolo[1,5-a]pyridine] | 144 to 144.5
CC(C)n1nc(-c2c(-c3ccccc3)nn3ccc(OCC(=O)NCCN(C)C)cc23)ccc1=O [Example 58, N-[2-(dimethylamino)ethyl]-2-{[3-(3-oxo-2-isopropyl-2,3-dihydropyridazin-6-yl)-2-phenylpyrazolo[1,5-a]pyridin-5-yl]oxy}acetamide] | 117 to 119
CCOc1ccn2nc(-c3ccccc3)c(-c3ccc(=O)n(C(C)C)n3)c2c1 [Example 26, 5-Ethoxy-3-(3-oxo-2-isopropyl-2,3-dihydropyridazin-6-yl)-2-phenylpyrazolo[1,5-a]pyridine] | 181 to 182
CCOCCNC(=O)c1ccn2nc(-c3ccccc3)c(-c3ccc(=O)n(C(C)C)n3)c2c1 [Example 78, N-(2-Ethoxyethyl)-3-(3-oxo-2-isopropyl-2,3-dihydropyridazin-6-yl)-2-phenylpyrazolo[1,5-a]pyridine-5-carboxamide] | 149 to 150
CC(C)n1nc(-c2c(-c3ccccc3)nn3ccc(OCCC4CCCC4)cc23)ccc1=O [Example 33, 5-(2-cyclopentylethoxy)-3-(3-oxo-2-isopropyl-2,3-dihydropyridazin-6-yl)-2-phenylpyrazolo[1,5-a]pyridine] | 159.5 to 160.5
CC(C)n1nc(-c2c(-c3ccccc3)nn3ccc(OCc4ccccn4)cc23)ccc1=O [Example 12, 5-(2-Pyridinylmethoxy)-3-(3-oxo-2-isopropyl-2,3-dihydropyridazin-6-yl)-2-phenylpyrazolo[1,5-a]pyridine] | 150 to 151
CC(C)OCCNC(=O)c1ccn2nc(-c3ccccc3)c(-c3ccc(=O)n(C(C)C)n3)c2c1 [Example 86, N-(2-Isopropoxyethyl)-3-(3-oxo-2-isopropyl-2,3-dihydropyridazin-6-yl)-2-phenylpyrazolo[1,5-a]pyridine-5-carboxamide] | 124 to 125
CC(C)n1nc(-c2c(-c3ccccc3)nn3ccc(C(=O)NCCOc4ccccc4)cc23)ccc1=O [Example 92, N-(2-Phenoxyethyl)-3-(3-oxo-2-isopropyl-2,3-dihydropyridazin-6-yl)-2-phenylpyrazolo[1,5-a]pyridine-5-carboxamide] | 156 to 157
COc1ccn2nc(-c3ccccc3)c(-c3ccc(=O)[nH]n3)c2c1 [Example 1, 5-methoxy-3-(3-oxo-2,3-dihydropyridazin-6-yl)-2-phenylpyrazolo[1,5-a]-pyridine] | 245.5 to 247
CCCCNC(=O)COc1ccn2nc(-c3ccccc3)c(-c3ccc(=O)n(C(C)C)n3)c2c1 [Example 65, N-Butyl-2-{[3-(3-oxo-2-isopropyl-2,3-dihydropyridazin-6-yl)-2-phenylpyrazolo[1,5-a]pyridin-5-yl]oxy}acetamide] | 151 to 152
CC(C)n1nc(-c2c(-c3ccccc3)nn3ccc(OCCN4CCOCC4)cc23)ccc1=O [Example 6, 5-[2-(4-morpholinyl)ethoxy]-3-(3-oxo-2-isopropyl-2,3-dihydropyridazin-6-yl)-2-phenylpyrazolo[1,5-a]pyridine] | 160 to 162
CCOCCNC(=O)COc1ccn2nc(-c3ccccc3)c(-c3ccc(=O)n(C(C)C)n3)c2c1 [Example 67, N-(2-Ethoxyethyl)-2-{[3-(3-oxo-2-isopropyl-2,3-dihydropyridazin-6-yl)-2-phenylpyrazolo[1,5-a]pyridin-5-yl]oxy}acetamide] | 126.5 to 127.5
CC(C)n1nc(-c2c(-c3ccccc3)nn3ccc(OCC(=O)Nc4ccccc4)cc23)ccc1=O [Example 44, 2-{[3-(3-Oxo-2-isopropyl-2,3-dihydropyridazin-6-yl)-2-phenylpyrazolo[1,5-a]pyridin-5-yl]oxy}-N-phenylacetamide] | 208 to 209
CC(C)n1nc(-c2c(-c3ccccc3)nn3ccc(N4CCNCC4)cc23)ccc1=O [Example 107, 5-(1-piperazinyl)-3-(3-oxo-2-isopropyl-2,3-dihydropyridazin-6-yl)-2-phenylpyrazolo[1,5-a]pyridine] | 203 to 204
CC(C)n1nc(-c2c(-c3ccccc3)nn3ccc(Oc4ccncc4)cc23)ccc1=O [Example 35, 5-(4-Pyridinyloxy)-3-(3-oxo-2-isopropyl-2,3-dihydropyridazin-6-yl)-2-phenylpyrazolo[1,5-a]pyridine] | 218.5 to 219.5
CC(C)n1nc(-c2c(-c3ccccc3)nn3ccc(OCC(=O)NC4CCCC4)cc23)ccc1=O [Example 62, N-Cyclopentyl-2-{[3-(3-oxo-2-isopropyl-2,3-dihydropyridazin-6-yl)-2-phenylpyrazolo[1,5-a]pyridin-5-yl]oxy}acetamide] | 187 to 188
CC(C)n1nc(-c2c(-c3ccccc3)nn3ccc(N4CCOCC4)cc23)ccc1=O [Example 98, 5-(4-Morpholinyl)-3-(3-oxo-2-isopropyl-2,3-dihydropyridazin-6-yl)-2-phenylpyrazolo[1,5-a]pyridine] | 182 to 187

The next lines start with the values.

melting point [°C] | SMILES
176 to 177 | COc1ccn2nc(-c3ccc(F)cc3)c(-c3ccc(=O)n(C(C)C)n3)c2c1 [Example 129, 5-Methoxy-3-(3-oxo-2-isopropyl-2,3-dihydropyridazin-6-yl)-2-(4-fluorophenyl)pyrazolo[1,5-a]pyridine]
124 to 126 | CC(C)n1nc(-c2c(-c3ccccc3)nn3ccc(N4CCN(C(=O)c5ccccc5)CC4)cc23)ccc1=O [Example 112, 5-(4-Benzoyl-1-piperazinyl)-3-(3-oxo-2-isopropyl-2,3-dihydropyridazin-6-yl)-2-phenylpyrazolo[1,5-a]pyridine]
179 to 180 | CCn1nc(-c2c(-c3ccc(F)cc3)nn3ccc(OC)cc23)ccc1=O [Example 131, 5-Methoxy-3-(3-oxo-2-ethyl-2,3-dihydropyridazin-6-yl)-2-(4-fluorophenyl)pyrazolo[1,5-a]pyridine]
174 to 175 | COc1ccn2nc(-c3ccccc3F)c(-c3ccc(=O)n(C(C)C)n3)c2c1 [Example 127, 5-Methoxy-3-(3-oxo-2-isopropyl-2,3-dihydropyridazin-6-yl)-2-(2-fluorophenyl)pyrazolo[1,5-a]pyridine]
148 to 150 | COCN(COC)c1ccn2nc(-c3ccccc3)c(-c3ccc(=O)n(C(C)C)n3)c2c1 [Example 154, 5-[bis(methoxymethyl)amino]-3-(3-oxo-2-isopropyl-2,3-dihydropyridazin-6-yl)-2-phenylpyrazolo[1,5-a]pyridine]
266 to 267 | CC(C)n1nc(-c2c(-c3ccccc3)nn3ccc(N4CCCC4=O)cc23)ccc1=O [Example 153, 5-(2-oxo-1-pyrrolidinyl)-3-(3-oxo-2-isopropyl-2,3-dihydropyridazin-6-yl)-2-phenylpyrazolo [1,5-a]pyridine]
183 to 184 | COc1ccn2nc(-c3ccccc3)c(-c3ccc(=O)n(C)n3)c2c1 [Example 115, 5-Methoxy-3-(3-oxo-2-methyl-2,3-dihydropyridazin-6-yl)-2-phenylpyrazolo[1,5-a]pyridine]
160 to 161 | CC(C)n1nc(-c2c(-c3ccccc3)nn3ccc(N4CCN(C(=O)N(C)C)CC4)cc23)ccc1=O [Example 109, 4-[3-(3-oxo-2-isopropyl-2,3-dihydropyridazin-6-yl)-2-phenylpyrazolo[1,5-a]pyridin-5-yl]-N,N-dimethyl-1-piperazinecarboxamide]
221 to 222 | CC(=O)Nc1ccn2nc(-c3ccccc3)c(-c3ccc(=O)n(C(C)C)n3)c2c1 [Example 147, 5-acetylamino-3-(3-oxo-2-isopropyl-2,3-dihydropyridazin-6-yl)-2-phenylpyrazolo[1,5-a]pyridine]
220.5 to 221.5 | COc1ccn2nc(-c3ccccc3F)c(-c3ccc(=O)n(C)n3)c2c1 [Example 126, 5-Methoxy-3-(3-oxo-2-methyl-2,3-dihydropyridazin-6-yl)-2-(2-fluorophenyl)pyrazolo[1,5-a]pyridine]
148 to 149 | CC(=O)N1CCN(c2ccn3nc(-c4ccccc4)c(-c4ccc(=O)n(C(C)C)n4)c3c2)CC1 [Example 113, 5-(4-Acetyl-1-piperazinyl)-3-(3-oxo-2-isopropyl-2,3-dihydropyridazin-6-yl)-2-phenylpyrazolo[1,5-a]pyridine]
148 to 149 | CCn1nc(-c2c(-c3ccccc3)nn3ccc(OC)cc23)ccc1=O [Example 116, 5-Methoxy-3-(3-oxo-2-ethyl-2,3-dihydropyridazin-6-yl)-2-phenylpyrazolo[1,5-a]pyridine]
